Reference: patent US9580414B2, “Salts and hydrates of antipsychotics” (SHASUN PHARMACEUTICALS LIMITED, priority 2012, dated 2017)
Several values for one entry are separate records, joined by “and”; a condition that tells them apart may be missing. Equal entries are not always repeated. Structures can show the parent of a compound that is named as a salt. Where two headings read alike, the source gives them in different places.

Columns and labels:
[1] = Single dose oral pharmacokinetics comparative study of Lurasidone monohydrochloride v. dihydrochloride; type: in vivo; conditions: 10 mg/kg, mean plasma, oral gavage, male Sprague Dawley rats
Protocol: Lurasidone salts mean plasma PK parameters were quantified with an API 3200 LC-MS/MS system and illustrated in Table 1.
Male Sprague Dawley rats aged 6-8 weeks and weighing 180-220 g will be used for experiment. Animals will be acclimatized for a minimum period of 5 days. Overnight fasted animals were administered the test substance by oral gavage with a dose equivalent dose of 10 mg/kg of the parent compound with ready to use formulation provided and at a dose volume of 10.06 & 9.6 mL/kg b.w. With mild inhalation anesthesia (Isoflurane), blood samples (200-250 μL) were collected by retro-orbital route at specified time points. Lurasidone hydrochloride and dihydrochloride samples were administered by oral route at a dose volume of 10.06 & 9.6 mL/kg body weight respectively. The actual dosage volume for each animal were calculated based on the fasted body weight. All the animals were administered a single dose on the day of experiment. Blood samples were collected in pre-labeled centrifuge tubes containing anticoagulant (K2EDTA). Blood sampling time points for both the groups were as follows Group 1 & 2—Subgroup 1 (n=5)—0.08, 0.16, 0.33, 0.5, 0.67, 0.83, 1.00 & Subgroup 2 (n=5)—1.5, 2, 3, 6, 12, 18, 24 h. All the animals were administered a single dose on the day of experiment. Blood samples were centrifuged at 4000 rpm at 4° C. for 10 minutes and the corresponding plasma samples were harvested into pre-labeled tubes. Plasma samples will be stored at −80° C. until analysis. The blood samples were centrifuged at 4000 rpm for 10 minutes at 4° C. and the corresponding plasma samples were transferred to clean pre-labeled tubes and stored at −80° C. until analysis.

[2] = Comparative solubility study in McIlvaine Buffer pH 3.8; type: physicochemical
Protocol: The solubility study was performed for the dihydrochloride salt of the present invention using the McIlvaine Buffer pH 3.8.

[3] = Solubility assayed in water; type: physicochemical; conditions: water and mixtures of water with water-miscible solvents; qualitative
Protocol: In particular, the solubility of the compounds of the present invention in comparison with hydrochloride was assayed in water and recorded.

[4] = Stability by storage under accelerated stability testing conditions; type: physicochemical; conditions: storage at 40° C., 75% RH and 50° C., 90% RH
[5] = in vivo; cited from earlier work
[6] = cited from earlier work
[7] = Comparative solubility study in McIlvaine Buffer pH 3.8; type: physicochemical; remark: listed apart in the source
[8] = male, Sprague Dawley, rat, plasma, po
[9] = listed as Monohydrochloride, hydrochloride

## O=C1[C@@H]2[C@H]3CC[C@H](C3)[C@@H]2C(=O)N1C[C@@H]1CCCC[C@H]1CN1CCN(c2nsc3ccccc23)CC1 [Di HCl Salt, (3aR,4S,7R,7aS)-2-{(1R,2R)-2-[4-(1,2-benzisothiazol-3-yl)piperazin-1-ylmethyl]cyclohexylmethyl}hexahydro-4,7-methano-2H-isoindole-1,3-dione dihydrochloride dihydrate]
[1]; [8]
  AUC(0-inf): 577 ng·h/mL
  AUC(0-t): 570 ng·h/mL
[1]; male, Sprague Dawley, rat, plasma, po, read-out: Cmax
  Cmax: 659 ng/mL
[1]; dihydrochloride dihydrate
  AUCextrap: 1.29%
  MRTlast: 1.05 h
  T1/2: 1.07 h
[2]; average of sample 1 and 2, dihydrochloride dihydrate
  Solubility (mg/ml) Avg.: 0.6472 mg/mL and 0.9020 mg/mL
[2]; sample 1, dihydrochloride dihydrate
  Solubility (mg/ml) Sample 1: 0.7220 mg/mL and 0.9548 mg/mL
[2]; sample 2, dihydrochloride dihydrate
  Solubility (mg/ml) Sample 2: 0.5724 mg/mL and 0.8498 mg/mL
[3]
  solubility in water: excellent solubility
[4]
  stability profile: excellent stability profile

## O=C1[C@@H]2[C@H]3CC[C@H](C3)[C@@H]2C(=O)N1C[C@@H]1CCCC[C@H]1CN1CCN(c2nsc3ccccc23)CC1 [Mono HCl Salt, (3aR,4S,7R,7aS)-2-[((1R,2R)-2-{[4-(1,2-benzisothiazol-3-yl)-piperazin-1-yl]methyl}cyclohexyl)methyl]hexahydro-1H-4,7-methanisoindol-1,3-dione hydrochloride]
[1]; [8]
  MRT last: 0.95 h
  half-life: 1.19 h
[1]; [9]
  AUCextrap: 1.37%
  AUCinf: 357.32 ng·h/mL
  AUClast: 352.41 ng·h/mL
  Cmax: 412.39 ng/mL
[1]; rat
  Tmax: 0.33 h
[5]
  bioavailability: less than 12%
[6]; 0.1 N HCl
  solubility in 0.1 N HCl: practically insoluble
[6]; water
  solubility in water: very slightly soluble
[7]; average of sample 1 and 2, hydrochloride
  Solubility (mg/ml) Avg.: 0.2126 mg/mL
[7]; listed as Lurasidone hydrochloride
  solubility: less than 0.212 mg/ml
[7]; listed as mono hydrochloride salt
  solubility: around 0.212 mg/ml
[7]; sample 1, hydrochloride
  Solubility (mg/ml) Sample 1: 0.2104 mg/mL
[7]; sample 2, hydrochloride
  Solubility (mg/ml) Sample 2: 0.2148 mg/mL
